In BindingDB's records for doi:10.1021/jm00102a007 (University of South Florida, 1993):

Biological target: T1, Adenosine receptor A1 (Cavia porcellus, UniProt P47745)
T1 sequence (P47745 whole entry): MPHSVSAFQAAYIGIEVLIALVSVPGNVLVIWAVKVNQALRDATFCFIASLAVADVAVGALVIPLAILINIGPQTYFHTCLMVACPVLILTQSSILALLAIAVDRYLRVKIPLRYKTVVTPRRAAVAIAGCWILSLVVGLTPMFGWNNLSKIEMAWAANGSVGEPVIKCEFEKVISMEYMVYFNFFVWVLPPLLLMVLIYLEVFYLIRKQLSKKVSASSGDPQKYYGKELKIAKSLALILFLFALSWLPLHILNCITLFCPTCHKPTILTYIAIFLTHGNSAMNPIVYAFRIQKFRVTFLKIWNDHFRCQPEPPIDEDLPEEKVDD
Test: ChEBML_29278
From the text: In vitro prolonging of the stimulus-QRS interval in guinea pig heart.

EC50: 25.1 µM
SMILES: CCCCCN=Nc1nc(N)c2ncn(C3O[C@H](CO)[C@@H](O)[C@H]3O)c2n1 (stereo partly specified)
